Experimental data published in patent US20250270200A1, “CTPS1 INHIBITORS AND USES THEREOF” (Nimbus Clotho, Inc., priority 2022, published 2025).
Several values for one entry are separate records, joined by “and”; a condition that tells them apart may be missing. Equal values may be shown once.

Target: T1, human CTPS1 (Homo sapiens, UniProt P17812)
T1 sequence (P17812 1-591): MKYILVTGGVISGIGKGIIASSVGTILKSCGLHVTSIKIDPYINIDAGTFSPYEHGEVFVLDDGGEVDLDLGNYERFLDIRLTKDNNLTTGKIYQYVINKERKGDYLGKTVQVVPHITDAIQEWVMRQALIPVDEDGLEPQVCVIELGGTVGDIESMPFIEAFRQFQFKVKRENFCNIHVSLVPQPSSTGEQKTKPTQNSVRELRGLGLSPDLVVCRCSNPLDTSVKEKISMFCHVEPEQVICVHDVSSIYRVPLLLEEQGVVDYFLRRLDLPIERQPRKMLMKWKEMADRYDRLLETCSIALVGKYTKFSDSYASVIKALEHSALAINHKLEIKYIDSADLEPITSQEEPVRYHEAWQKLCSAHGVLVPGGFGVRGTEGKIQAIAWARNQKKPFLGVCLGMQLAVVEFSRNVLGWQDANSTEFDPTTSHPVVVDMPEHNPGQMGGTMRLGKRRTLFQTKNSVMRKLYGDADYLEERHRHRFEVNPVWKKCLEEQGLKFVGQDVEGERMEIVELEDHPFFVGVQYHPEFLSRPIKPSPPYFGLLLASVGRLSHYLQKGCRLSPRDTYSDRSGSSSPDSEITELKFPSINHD
Experiment: ADP-Glo assay, human CTPS1 enzyme inhibition
Format: biochemical
Conditions: wild-type human CTPS1, 25 nM enzyme; ADP-Glo; read-out: ADP-Glo_WT_hCTPS1—25 nM_IC50 (IC50)
Outline: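 Full-length tagged human CTPS1 (25 nM) pre-incubated 10 min at 25° C with compound, then 10 min with ATP (120 μM) and UTP (160 μM); reaction started with L-glutamine (100 μM) and GTP (60 μM), 1% DMSO, in HEPES pH 7.4, 10 mM Mg2+, 5 mM KCl, 2 mM DTT. Run within linear phase at 25° C; ADP measured by ADP-Glo luminescence.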

## CCOc1cncc(-c2cnc(C(=O)N[C@@H](c3cc(NS(=O)(=O)C4CC4)ccn3)[C@@H]3CCN(C4CCCC4)C3)s2)n1 [I-95, N-((R)-((R)-1-cyclopentylpyrrolidin-3-yl)(4-(cyclopropanesulfonamido)pyridin-2-yl)methyl)-5-(6-ethoxypyrazin-2-yl)thiazole-2-carboxamide]
  IC50: 5 to 25 nM

## CCOc1cncc(-c2cnc(C(=O)N[C@@H](c3cc(NS(=O)(=O)C4CC4)ccn3)[C@H]3CCN(C4CCCC4)C3)s2)n1 [I-96, N-((R)-((S)-1-cyclopentylpyrrolidin-3-yl)(4-(cyclopropanesulfonamido)pyridin-2-yl)methyl)-5-(6-ethoxypyrazin-2-yl)thiazole-2-carboxamide]
  IC50: 5 to 25 nM

## CCOc1cncc(-c2cnc(C(=O)N[C@H](c3cc(NS(=O)(=O)C4CC4)ccn3)[C@H]3CN(C)CCO3)s2)n1 [I-97, N-((R)-(4-(cyclopropanesulfonamido)pyridin-2-yl)((R)-4-methylmorpholin-2-yl)methyl)-5-(6-ethoxypyrazin-2-yl)thiazole-2-carboxamide]
  IC50: 25 to 50 nM and 5 to 25 nM

## CCOc1cncc(-c2cnc(C(=O)N[C@@H](COC)c3nccc(NS(=O)(=O)C4CC4)n3)s2)n1 [I-98, (R)-N-(1-(4-(cyclopropanesulfonamido)pyrimidin-2-yl)-2-methoxyethyl)-5-(6-ethoxypyrazin-2-yl)thiazole-2-carboxamide]
  IC50: 25 to 50 nM

## CCOc1cncc(-c2cnc(C(=O)N[C@H](c3cc(NS(=O)(=O)C4CC4)ccn3)[C@@H]3CN(C)CCO3)s2)n1 [I-99, N-((R)-(4-(cyclopropanesulfonamido)pyridin-2-yl)((S)-4-methylmorpholin-2-yl)methyl)-5-(6-ethoxypyrazin-2-yl)thiazole-2-carboxamide]
  IC50: 5 to 25 nM

## CCOc1cncc(-c2cnc(C(=O)N[C@@H](c3cc(NS(=O)(=O)C4CC4)ccn3)[C@H]3CN(C)CCO3)s2)n1 [I-100, N-((S)-(4-(cyclopropanesulfonamido)pyridin-2-yl)((R)-4-methylmorpholin-2-yl)methyl)-5-(6-ethoxypyrazin-2-yl)thiazole-2-carboxamide]
  IC50: 5 to 25 nM

## CCOc1cncc(-c2cnc(C(=O)N[C@@H](c3cc(NS(=O)(=O)C4CC4)ccn3)[C@@H]3CN(C)CCO3)s2)n1 [I-101, N-((S)-(4-(cyclopropanesulfonamido)pyridin-2-yl)((S)-4-methylmorpholin-2-yl)methyl)-5-(6-ethoxypyrazin-2-yl)thiazole-2-carboxamide]
  IC50: 5 to 25 nM

## CCOc1cncc(-c2cnc(C(=O)N[C@@H](C[C@H]3COCCN3C)c3cc(NS(=O)(=O)C4CC4)ccn3)s2)n1 [I-102, N-((S)-1-(4-(cyclopropanesulfonamido)pyridin-2-yl)-2-((S)-4-methylmorpholin-3-yl)ethyl)-5-(6-ethoxypyrazin-2-yl)thiazole-2-carboxamide]
  IC50: 50 to 100 nM

## CCOc1cncc(-c2cnc(C(=O)N[C@H](C[C@H]3COCCN3C)c3cc(NS(=O)(=O)C4CC4)ccn3)s2)n1 [I-104, N-((R)-1-(4-(cyclopropanesulfonamido)pyridin-2-yl)-2-((S)-4-methylmorpholin-3-yl)ethyl)-5-(6-ethoxypyrazin-2-yl)thiazole-2-carboxamide]
  IC50: ≤ 5 nM

## CCOc1cncc(-c2cnc(C(=O)N[C@H](c3cc(NS(=O)(=O)C4CC4)ccn3)[C@H]3CCN(CCF)C3)s2)n1 [I-107, N-((S)-(4-(cyclopropanesulfonamido)pyridin-2-yl)((S)-1-(2-fluoroethyl)pyrrolidin-3-yl)methyl)-5-(6-ethoxypyrazin-2-yl)thiazole-2-carboxamide]
  IC50: 50 to 100 nM

## CCOc1cncc(-c2cnc(C(=O)N[C@H](c3cc(NS(=O)(=O)C4CC4)ccn3)[C@@H]3CCN(CCF)C3)s2)n1 [I-108, N-((S)-(4-(cyclopropanesulfonamido)pyridin-2-yl)((R)-1-(2-fluoroethyl)pyrrolidin-3-yl)methyl)-5-(6-ethoxypyrazin-2-yl)thiazole-2-carboxamide]
  IC50: 5 to 25 nM

## CCOc1cncc(-c2cnc(C(=O)N[C@@H](c3cc(NS(=O)(=O)C4CC4)ccn3)[C@@H]3CCN(CCF)C3)s2)n1 [I-109, N-((R)-(4-(cyclopropanesulfonamido)pyridin-2-yl)((R)-1-(2-fluoroethyl)pyrrolidin-3-yl)methyl)-5-(6-ethoxypyrazin-2-yl)thiazole-2-carboxamide]
  IC50: 5 to 25 nM

## CCOc1cncc(-c2cnc(C(=O)N[C@@H](c3cc(NS(=O)(=O)C4CC4)ccn3)[C@H]3CCN(CCF)C3)s2)n1 [I-110, N-((R)-(4-(cyclopropanesulfonamido)pyridin-2-yl)((S)-1-(2-fluoroethyl)pyrrolidin-3-yl)methyl)-5-(6-ethoxypyrazin-2-yl)thiazole-2-carboxamide]
  IC50: ≤ 5 nM

## CCOc1cncc(-c2cnc(C(=O)N[C@H](c3cc(NS(=O)(=O)C4CC4)ccn3)[C@H]3CCN(C4CC4)C3)s2)n1 [I-112, N-((S)-(4-(cyclopropanesulfonamido)pyridin-2-yl)((S)-1-cyclopropylpyrrolidin-3-yl)methyl)-5-(6-ethoxypyrazin-2-yl)thiazole-2-carboxamide]
  IC50: 5 to 25 nM

## CCOc1cncc(-c2cnc(C(=O)N[C@H](c3cc(NS(=O)(=O)C4CC4)ccn3)[C@@H]3CCN(C4CC4)C3)s2)n1 [I-113, N-((S)-(4-(cyclopropanesulfonamido)pyridin-2-yl)((R)-1-cyclopropylpyrrolidin-3-yl)methyl)-5-(6-ethoxypyrazin-2-yl)thiazole-2-carboxamide]
  IC50: 5 to 25 nM

## CCOc1cncc(-c2cnc(C(=O)N[C@@H](c3cc(NS(=O)(=O)C4CC4)ccn3)[C@@H]3CCN(C4CC4)C3)s2)n1 [I-114, N-((R)-(4-(cyclopropanesulfonamido)pyridin-2-yl)((R)-1-cyclopropylpyrrolidin-3-yl)methyl)-5-(6-ethoxypyrazin-2-yl)thiazole-2-carboxamide]
  IC50: 5 to 25 nM

## CCOc1cncc(-c2cnc(C(=O)N[C@H](c3cc(NS(=O)(=O)C4CC4)ccn3)[C@@H]3CCCN3C)s2)n1 [I-115, N-((S)-(4-(cyclopropanesulfonamido)pyridin-2-yl)((S)-1-methylpyrrolidin-2-yl)methyl)-5-(6-ethoxypyrazin-2-yl)thiazole-2-carboxamide]
  IC50: 50 to 100 nM

## CCOc1cncc(-c2cnc(C(=O)N[C@H](c3cc(NS(=O)(=O)C4CC4)ccn3)[C@H]3CCCN3C)s2)n1 [I-116, N-((S)-(4-(cyclopropanesulfonamido)pyridin-2-yl)((R)-1-methylpyrrolidin-2-yl)methyl)-5-(6-ethoxypyrazin-2-yl)thiazole-2-carboxamide]
  IC50: 25 to 50 nM

## CCOc1cncc(-c2cnc(C(=O)N[C@@H](c3cc(NS(=O)(=O)C4CC4)ccn3)[C@@H]3CCCN3C)s2)n1 [I-117, N-((R)-(4-(cyclopropanesulfonamido)pyridin-2-yl)((S)-1-methylpyrrolidin-2-yl)methyl)-5-(6-ethoxypyrazin-2-yl)thiazole-2-carboxamide]
  IC50: 5 to 25 nM

## CCOc1cncc(-c2cnc(C(=O)N[C@@H](c3cc(NS(=O)(=O)C4CC4)ccn3)[C@H]3CCCN3C)s2)n1 [I-118, N-((R)-(4-(cyclopropanesulfonamido)pyridin-2-yl)((R)-1-methylpyrrolidin-2-yl)methyl)-5-(6-ethoxypyrazin-2-yl)thiazole-2-carboxamide]
  IC50: 5 to 25 nM

## CCOc1cncc(-c2cnc(C(=O)N[C@H](c3cc(NS(=O)(=O)C4CC4)ccn3)[C@@H]3CC(=O)N(C)C3)s2)n1 [I-119, N-((S)-(4-(cyclopropanesulfonamido)pyridin-2-yl)((R)-1-methyl-5-oxopyrrolidin-3-yl)methyl)-5-(6-ethoxypyrazin-2-yl)thiazole-2-carboxamide]
  IC50: 25 to 50 nM

## CCOc1cncc(-c2cnc(C(=O)N[C@H](c3cc(NS(=O)(=O)C4CC4)ccn3)[C@H]3CC(=O)N(C)C3)s2)n1 [I-120, N-((S)-(4-(cyclopropanesulfonamido)pyridin-2-yl)((S)-1-methyl-5-oxopyrrolidin-3-yl)methyl)-5-(6-ethoxypyrazin-2-yl)thiazole-2-carboxamide]
  IC50: 25 to 50 nM

## CCOc1cncc(-c2cnc(C(=O)N[C@@H](c3cc(NS(=O)(=O)C4CC4)ccn3)[C@@H]3CC(=O)N(C)C3)s2)n1 [I-121, N-((R)-(4-(cyclopropanesulfonamido)pyridin-2-yl)((R)-1-methyl-5-oxopyrrolidin-3-yl)methyl)-5-(6-ethoxypyrazin-2-yl)thiazole-2-carboxamide]
  IC50: 5 to 25 nM

## CCOc1cncc(-c2cnc(C(=O)N[C@@H](c3cc(NS(=O)(=O)C4CC4)ccn3)[C@H]3CC(=O)N(C)C3)s2)n1 [I-122, N-((R)-(4-(cyclopropanesulfonamido)pyridin-2-yl)((S)-1-methyl-5-oxopyrrolidin-3-yl)methyl)-5-(6-ethoxypyrazin-2-yl)thiazole-2-carboxamide]
  IC50: 5 to 25 nM

## CCOc1cncc(-c2cnc(C(=O)N[C@@H](CN3C[C@H]4CC[C@@H]3CO4)c3cc(NS(=O)(=O)C4CC4)ccn3)s2)n1 [I-123, N-((S)-2-((1R,4R)-2-oxa-5-azabicyclo[2.2.2]octan-5-yl)-1-(4-(cyclopropanesulfonamido)pyridin-2-yl)ethyl)-5-(6-ethoxypyrazin-2-yl)thiazole-2-carboxamide]
  IC50: 50 to 100 nM
